Reference: PMC9029089, “1,5-Disubstituted Acylated 2-Amino-4,5-dihydroimidazoles as a New Class of Retinoic Acid Receptor–Related Orphan Receptor (ROR) Inhibitors” (International Journal of Molecular Sciences, 2022)

Biological target: T1, RORγ (Mus musculus, UniProt P51450)
T1 construct: mRORγ (Pro-261-end); expressed in transfected cells
T1 sequence (P51450 261-516 limits assumed): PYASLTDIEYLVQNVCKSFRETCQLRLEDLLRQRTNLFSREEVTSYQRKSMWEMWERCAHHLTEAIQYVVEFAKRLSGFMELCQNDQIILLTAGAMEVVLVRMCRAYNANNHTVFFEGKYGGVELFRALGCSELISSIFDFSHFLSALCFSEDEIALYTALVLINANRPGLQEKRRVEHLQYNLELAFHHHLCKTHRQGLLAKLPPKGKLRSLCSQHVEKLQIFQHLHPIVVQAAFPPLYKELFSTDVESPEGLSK
Experiment: Gal4-RORγ-LBD UAS-luciferase reporter assay in TRex-CHO-K1 cells (doxycycline-stimulated)
Assay type: cell-based
Settings: T-REx-CHO-K1; individual controls 1295.201-307, 5 μg/ml, triplicate; read-out: % Inhibition RORγ 5 μg/ml
Excerpt: (§1) The Gal4-DBD-ROR-LBD fusion proteins were subcloned in the pcDNA4/TO expression vector (Thermo Scientific) and transfected into TRex-CHO-K1 cells (Thermo Scientific) for tetracycline-controlled expression of the corresponding ROR proteins. Transfected cells were selected with hygromycin and Zeocin and individual clones for each of the Gal4-RORγ, Gal4-RORα, and Gal4-RORβ cell lines were isolated using a standard serial dilution protocol. Clones with the highest doxycycline-dependent stimulation of luciferase activity were selected for all functional experiments.
(§2) For screening FIU libraries, cells were resuspended in Ham’s F-12 assay medium containing 2% charcoal-treated FBS and no selection drugs. […] Cells were allowed to attach for 2 h, followed by compound treatment and stimulation with 20 ng/mL doxycycline for an additional 16–20 h. Appropriate solvent controls, negative controls with no doxycycline, and blanks with no cells were included in every plate. Prior to measuring luciferase activity, 6 µL of 0.15 mg/mL resazurin (Cayman Chemical) in PBS were added and cells were incubated for 1 h at 37 °C. Fluorescence intensity was detected at 545 nm excitation/590 nm emission using a CLARIOstar reader (BMGLabtech) as a measure of cell viability, to identify any potential cytotoxic effect of test compounds and mixtures.
(§3) Luminescence was normalized by the fluorescence intensity and the percentage of inhibition was calculated with respect to control cells stimulated with doxycycline in the presence of solvent control (0.1% DMF). All primary screens with individual compounds were performed in triplicate with a final concentration of 5 µg/mL. […] IC50 values were calculated using GraphPrism (GraphPad software).

Row | Structure (SMILES) | inhibition at 5 µg/mL
1 | O=C(Cc1ccccc1)NC1=NC[C@H](Cc2ccccc2)N1CCc1ccc(-c2ccccc2)cc1 [1295.248] | 91.5%

Same assay, conditions: from IC50 values in reporter cells

Row | Structure (SMILES) | selectivity towards RORγ over RORα and RORβ
2 | O=C(Cc1ccccc1)NC1=NC[C@H](Cc2ccccc2)N1CCc1ccc(-c2ccccc2)cc1 [1295.248] | two-fold selectivity

Same assay, conditions: individual controls 1295.201-307, 5 μg/ml, triplicate

Row | Structure (SMILES) | % Inhibition RORγ 5 μg/ml
3 | O=C(Cc1ccc(Br)cc1)NC1=NC[C@H](Cc2ccccc2)N1CCc1ccccc1 [1295.280] | 42.0%
4 | COc1ccc(CC(=O)NC2=NC[C@H](Cc3ccccc3)N2CCc2ccccc2)cc1 [1295.281] | 52.6%
5 | CCOc1ccc(CC(=O)NC2=NC[C@H](Cc3ccccc3)N2CCc2ccccc2)cc1 [1295.282] | -2.3%
6 | COc1ccc(CCC(=O)NC2=NC[C@H](Cc3ccccc3)N2CCc2ccccc2)cc1OC [1295.284] | 34.0%
7 | O=C(Cc1ccc(-c2ccccc2)cc1)NC1=NC[C@H](Cc2ccccc2)N1CCc1ccccc1 [1295.285] | 11.1%
8 | COc1ccc(CC(=O)NC2=NC[C@H](Cc3ccccc3)N2CCc2ccccc2)cc1OC [1295.287] | 54.7%
9 | Cc1cccc(C(=O)NC2=NC[C@H](Cc3ccccc3)N2CCc2ccccc2)c1 [1295.288] | 59.9%
10 | O=C(CCCc1ccccc1)NC1=NC[C@H](Cc2ccccc2)N1CCc1ccccc1 [1295.290] | 60.2%
11 | O=C(Cc1ccccc1)NC1=NC[C@H](Cc2ccccc2)N1CCc1ccccc1 [1295.291] | 5.6%
12 | CCc1ccc(-c2ccc(C(=O)NC3=NC[C@H](Cc4ccccc4)N3CCc3ccccc3)cc2)cc1 [1295.292] | 48.3%
13 | CCCC(=O)NC1=NC[C@H](Cc2ccccc2)N1CCc1ccccc1 [1295.293] | 37.4%
14 | CCCCCCC(=O)NC1=NC[C@H](Cc2ccccc2)N1CCc1ccccc1 [1295.294] | 44.3%
15 | CC(C)C(=O)NC1=NC[C@H](Cc2ccccc2)N1CCc1ccccc1 [1295.295] | 31.3%
16 | CC(C)CCC(=O)NC1=NC[C@H](Cc2ccccc2)N1CCc1ccccc1 [1295.297] | 62.2%
17 | CC(=O)NC1=NC[C@H](Cc2ccccc2)N1CCc1ccccc1 [1295.301] | 15.4%
18 | O=C(NC1=NC[C@H](Cc2ccccc2)N1CCc1ccccc1)C1CCC1 [1295.302] | 24.7%
19 | O=C(NC1=NC[C@H](Cc2ccccc2)N1CCc1ccccc1)C1CCCC1 [1295.303] | 3.3%
20 | O=C(CCC1CCCC1)NC1=NC[C@H](Cc2ccccc2)N1CCc1ccccc1 [1295.304] | 45.5%

Same assay, conditions: individual controls of library 1295, second confirmatory dose response, Figure 2

Row | Structure (SMILES) | IC50
21 | O=C(Cc1ccccc1)NC1=NC[C@H](Cc2ccccc2)N1CCc1ccc(-c2ccccc2)cc1 [1295.248] | 5 µM

Biological target: T2, RORα (Homo sapiens, UniProt P35398)
T2 construct: hRORα (Pro-211-end); expressed in transfected cells
T2 sequence (P35398 266-523): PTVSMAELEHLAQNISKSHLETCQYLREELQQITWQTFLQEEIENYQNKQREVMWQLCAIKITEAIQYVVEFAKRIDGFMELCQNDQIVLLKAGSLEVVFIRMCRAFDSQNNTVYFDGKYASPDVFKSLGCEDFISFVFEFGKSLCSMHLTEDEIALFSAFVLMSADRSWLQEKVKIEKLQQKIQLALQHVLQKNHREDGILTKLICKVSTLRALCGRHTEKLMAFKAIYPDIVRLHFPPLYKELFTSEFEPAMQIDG
Experiment: Gal4-RORα-LBD UAS-luciferase reporter assay in TRex-CHO-K1 cells (doxycycline-stimulated)
Assay type: cell-based
Settings: IC50 (μM) (N=4) RORα, individual controls of library 1295, second confirmatory dose response, Figure 2
Excerpt: as §1, §2, §3

Row | Structure (SMILES) | IC50
22 | O=C(Cc1ccccc1)NC1=NC[C@H](Cc2ccccc2)N1CCc1ccc(-c2ccccc2)cc1 [1295.248] | 10.1 µM

Biological target: T3, RORβ (Rattus norvegicus, UniProt P45446)
T3 construct: rRORβ (Pro 205-end); expressed in transfected cells
T3 sequence (P45446 205-459 isoform P45446-1): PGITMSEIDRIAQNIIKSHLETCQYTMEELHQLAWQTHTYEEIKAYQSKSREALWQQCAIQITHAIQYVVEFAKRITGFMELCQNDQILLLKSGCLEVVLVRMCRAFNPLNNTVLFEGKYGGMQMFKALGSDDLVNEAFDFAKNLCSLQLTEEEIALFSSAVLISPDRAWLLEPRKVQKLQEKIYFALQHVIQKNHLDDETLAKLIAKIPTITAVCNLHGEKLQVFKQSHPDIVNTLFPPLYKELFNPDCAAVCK
Experiment: Gal4-RORβ-LBD UAS-luciferase reporter assay in TRex-CHO-K1 cells (doxycycline-stimulated)
Assay type: cell-based
Settings: IC50 (μM) (N=4) RORβ, individual controls of library 1295, second confirmatory dose response, Figure 2
Excerpt: To investigate the transcriptional activity of all three RORs, we generated stable cell lines expressing an UAS-driven luciferase reporter together with the corresponding Gal4-DNA binding domain fused to the ligand binding domains (LBDs) of mRORγ (Pro-261-end), hRORα (Pro-211-end), or rRORβ (Pro 205-end). The Gal4-DBD-ROR-LBD fusion proteins were subcloned in the pcDNA4/TO expression vector (Thermo Scientific) and transfected into TRex-CHO-K1 cells (Thermo Scientific) for tetracycline-controlled expression of the corresponding ROR proteins. Transfected cells were selected with hygromycin and Zeocin and individual clones for each of the Gal4-RORγ, Gal4-RORα, and Gal4-RORβ cell lines were isolated using a standard serial dilution protocol. Clones with the highest doxycycline-dependent stimulation of luciferase activity were selected for all functional experiments. All cell lines were maintained in complete Ham’s F12 medium containing 10% fetal bovine serum (FBS), 10 µg/mL blasticidine, 100 µg/mL hygromycin, and 100 µg/mL Zeocin and were used within 2 months of culture without any loss of doxycycline-dependent stimulation of luciferase activity.
For screening FIU libraries, cells were resuspended in Ham’s F-12 assay medium containing 2% charcoal-treated FBS and no selection drugs. Ten thousand cells per well were seeded in 30 µL of assay medium in 384 white plates with clear bottom (Greiner). Cells were allowed to attach for 2 h, followed by compound treatment and stimulation with 20 ng/mL doxycycline for an additional 16–20 h. Appropriate solvent controls, negative controls with no doxycycline, and blanks with no cells were included in every plate. Prior to measuring luciferase activity, 6 µL of 0.15 mg/mL resazurin (Cayman Chemical) in PBS were added and cells were incubated for 1 h at 37 °C. Fluorescence intensity was detected at 545 nm excitation/590 nm emission using a CLARIOstar reader (BMGLabtech) as a measure of cell viability, to identify any potential cytotoxic effect of test compounds and mixtures. Following the resazurin assay, the medium was removed and 20 µL of BriteLite-Plus luciferase reagent (Perking Elmer) were added; luminescence was measured in a CLARIOstar reader using a 384 aperture spoon and a 0.1 sec measuring time interval.
as §3

Row | Structure (SMILES) | IC50
23 | O=C(Cc1ccccc1)NC1=NC[C@H](Cc2ccccc2)N1CCc1ccc(-c2ccccc2)cc1 [1295.248] | 12.1 µM

Biological target: T1, RORγ
Experiment: Gal4-RORγ-LBD UAS-luciferase reporter assay in TRex-CHO-K1 cells (doxycycline-stimulated)
Assay type: cell-based
Settings: library 2520, RORγ cells

Row | Structure (SMILES) | % Inhibition at 4 μM (N=3)
24 | COc1ccc(CC(=O)NC2=NCC(Cc3ccc4ccccc4c3)N2CCC2CC3CCC2C3)cc1 (mixture of isomers) [2520.02] | -33.8%
25 | CCC(C(=O)NC1=NCC(Cc2ccc3ccccc3c2)N1CC1CCCCC1)c1ccccc1 (mixture of isomers) [2520.03] | -31.8%
26 | CC(C)C(=O)NC1=NCC(Cc2ccc3ccccc3c2)N1CCC(C)c1ccccc1 (mixture of isomers) [2520.04] | -40.8%
27 | CCC(C(=O)NC1=NCC(Cc2ccc3ccccc3c2)N1CCC(C)c1ccccc1)c1ccccc1 (mixture of isomers) [2520.07] | -32.2%
28 | COc1ccc(CC(=O)NC2=NCC(Cc3ccc4ccccc4c3)N2CCC(C)c2ccccc2)cc1 (mixture of isomers) [2520.10] | -7.3%
29 | CCC(C)C1CN=C(NC(=O)Cc2ccc(OC)cc2)N1CCC1CC2CCC1C2 (mixture of isomers) [2520.14] | 43.0%
30 | CCC(C)C1CN=C(NC(=O)C(C)C)N1CCC1CC2CCC1C2 (mixture of isomers) [2520.20] | 13.3%
31 | CCC(C(=O)NC1=NCC(C(C)CC)N1CCC1CC2CCC1C2)c1ccccc1 (mixture of isomers) [2520.23] | 35.9%
32 | COc1ccc(CC(=O)NC2=NCC(Cc3ccccc3)N2CCC2CC3CCC2C3)cc1 (mixture of isomers) [2520.26] | 40.8%
33 | CC(C)C(=O)NC1=NCC(Cc2ccccc2)N1CCC1CC2CCC1C2 (mixture of isomers) [2520.32] | 36.0%
34 | COc1ccc(CC(=O)NC2=NCC(Cc3ccccc3)N2CCC(C)c2ccccc2)cc1 (mixture of isomers) [2520.34] | 34.4%
35 | CCC(C(=O)NC1=NCC(Cc2ccccc2)N1CCC1CC2CCC1C2)c1ccccc1 (mixture of isomers) [2520.35] | -21.7%
36 | CCOc1ccc(CC2CN=C(NC(=O)Cc3ccc(OC)cc3)N2CCC2CC3CCC2C3)cc1 (mixture of isomers) [2520.38] | -22.6%
37 | CCOc1ccc(CC2CN=C(NC(=O)C(C)C)N2CCC(C)c2ccccc2)cc1 (mixture of isomers) [2520.40] | -8.1%
38 | CCOc1ccc(CC2CN=C(NC(=O)C(CC)c3ccccc3)N2CCC(C)c2ccccc2)cc1 (mixture of isomers) [2520.43] | -5.4%
39 | CCOc1ccc(CC2CN=C(NC(=O)C(C)C)N2CCC2CC3CCC2C3)cc1 (mixture of isomers) [2520.44] | -20.0%
40 | COc1ccc(CC(=O)NC2=NC[C@H](Cc3ccc4ccccc4c3)N2CC2CCCCC2)cc1 [2520.06] | -56.4%
41 | CC(C)C(=O)NC1=NC[C@H](Cc2ccc3ccccc3c2)N1CC1CCCCC1 [2520.12] | 30.4%
42 | CC[C@H](C)[C@H]1CN=C(NC(=O)Cc2ccc(OC)cc2)N1CC1CCCCC1 [2520.18] | 26.2%
43 | COc1ccc(CC(=O)NC2=NC[C@H](Cc3ccccc3)N2CC2CCCCC2)cc1 [2520.30] | -4.8%
44 | CC(C)C(=O)NC1=NC[C@H](Cc2ccccc2)N1CC1CCCCC1 [2520.36] | -5.4%
